Data on 28 molecules can be found in patent US20020115640A1, “Farnesyltransferase inhibitors” (priority 2000, published 2002).

One assay deals with T1, farnesyltransferase (Rattus norvegicus, UniProt Q02293+Q04631).
T1 construct: The enzyme can be purified according to Cell, 62: 81-88 (1990), utilizing steps one, two, and three; from tissue; host or cells: rat brain
T1 sequence (Q02293 whole entry, one chain of several): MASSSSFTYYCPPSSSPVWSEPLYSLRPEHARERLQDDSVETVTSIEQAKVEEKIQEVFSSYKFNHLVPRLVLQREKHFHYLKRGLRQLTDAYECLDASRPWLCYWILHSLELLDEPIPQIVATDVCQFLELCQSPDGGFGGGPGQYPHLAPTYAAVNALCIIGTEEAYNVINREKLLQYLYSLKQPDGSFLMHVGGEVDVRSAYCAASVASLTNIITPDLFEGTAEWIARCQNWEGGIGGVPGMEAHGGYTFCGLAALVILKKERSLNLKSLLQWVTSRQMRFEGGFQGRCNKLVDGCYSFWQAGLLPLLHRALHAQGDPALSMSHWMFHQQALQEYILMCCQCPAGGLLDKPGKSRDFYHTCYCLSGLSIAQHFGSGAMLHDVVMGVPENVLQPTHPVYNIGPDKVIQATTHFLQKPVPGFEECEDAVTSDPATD
Description: Inhibition of farnesyltransferase (3H-farnesyldiphosphate / H-Ras filter assay). Type of assay: biochemical. As to conditions: test compound at 10^−7 M; 3H-farnesyldiphosphate 0.6 μM, H-Ras 5.0 μM, 37° C., 30 minutes. The source says:
The ability of the compounds of the present invention to inhibit farnesyltransferase can be measured according to the method described in J. Biol. Chem., 266: 14603 (1991) or J. Biol. Chem., 270:660-664 (1995). Procedures for determination of the inhibition of farnesylation of the oncogene protein Ras are described in J. Biol. Chem., 266:15575-15578 (1991) and U.S. Pat. No. 5,245,061. Inhibition of rat brain farnesyltransferase can also be measured in vitro using an Amersham Life Science commercial scintillation proximity assay kit and substituting a biotin-K Ras B fragment (0.1 μM final concentration) for the biotin-lamin substrate provided by Amersham. The enzyme can be purified according to Cell, 62: 81-88 (1990), utilizing steps one, two, and three. […] The percent inhibition of the farnesylation caused by the compounds of the present invention (at 10^−6 M) compared to an uninhibited control sample can be evaluated in the same Amersham test system.
The mixture was brought to 37° C., treated with enzyme, incubated for 30 minutes, treated with 1 M HCl/ethanol (1 mL) to stop the reaction, stirred for 15 minutes at room temperature, diluted with ethanol (2 mL), filtered through a 2.5 cm glass microfiber filter (Whatman) with ethanol rinses (4×2 mL). The glass transferred to a scintillation vial and treated with scintillation fluid (5 mL). The radioisotope retained on the glass fiber filter was counted and reflected the activity of the enzyme.
Usually inhibition stands for how much of the control response was suppressed. `Cn1cncc1C(OCc1ccc(C#N)cc1-c1ccc2c(c1)OCO2)c1ccc(C#N)cc1` (stereo not shown) [Example 33, 3-(1,3-benzodioxol-5-yl)-4-(((4-cyanophenyl)(1-methyl-1H-imidazol-5-yl)methoxy)methyl)benzonitrile] returned an inhibition at 0.1 µM above 98%. On the same count and under the same terms, to `Cn1cncc1C(OCc1ccc(C#N)cc1-c1cccc(Cl)c1)c1ccc(C#N)cc1` (stereo not shown) [Example 34, 3′-chloro-6-(((4-cyanophenyl)(1-methyl-1H-imidazol-5-yl)methoxy)methyl)(1,1′-biphenyl)-3-carbonitrile] belongs above 97%; to `Cn1cncc1C(OCc1ccc(Cl)nc1-c1cccc(Cl)c1)c1ccc(C#N)cc1` (stereo not shown) [Example 35, 4-(((6-chloro-2-(3-chlorophenyl)-3-pyridinyl)methoxy)(1-methyl-1H-imidazol-5-yl)methyl)benzonitrile], 96%; to `Cc1ccc(COC(c2ccc(C#N)cc2)c2cncn2C)c(-c2cccc(Cl)c2)n1` (stereo not shown) [Example 36, 4-(((2-(3-chlorophenyl)-6-methyl-3-pyridinyl)methoxy)(1-methyl-1H-imidazol-5-yl)methyl)benzonitrile], 70%. Still for that read-out and setting: the figure for `Cn1cncc1C(O)(C#Cc1ccc(Cl)cc1-c1cccc(Cl)c1)c1ccc(C#N)cc1` (stereo not shown) [Example 37, 4-(3-(3′,5-dichloro(1,1′-biphenyl)-2-yl)-1-hydroxy-1-(1-methyl-1H-imidazol-5-yl)-2-propynyl)benzonitrile] is above 96%. Still for that read-out and setting: the figure for `Cn1cncc1C(OCc1cnc(F)cc1-c1cccc(Cl)c1)c1ccc(C#N)cc1` (stereo not shown) [Example 38, 4-(((4-(3-chlorophenyl)-6-fluoro-3-pyridinyl)methoxy)(1-methyl-1H-imidazol-5-yl)methyl)benzonitrile] is 80%; for `COc1cc(-c2cccc(Cl)c2)c(COC(c2ccc(C#N)cc2)c2cncn2C)cn1` (stereo not shown) [Example 39, 4-(((4-(3-chlorophenyl)-6-methoxy-3-pyridinyl)methoxy)(1-methyl-1H-imidazol-5-yl)methyl)benzonitrile] it is 74%. `Cn1cncc1C(OCc1cnc(C#N)cc1-c1cccc(Cl)c1)c1ccc(C#N)cc1` (stereo not shown) [Example 40, 4-(3-chlorophenyl)-5-(((4-cyanophenyl)(1-methyl-1H-imidazol-5-yl)methoxy)methyl)-2-pyridinecarbonitrile] had an inhibition at 0.1 µM above 83%. On the same count and under the same terms, to `Cn1cncc1C(NC(=O)c1cn(C)c(=O)cc1-c1cccc(Cl)c1)c1ccc(C#N)cc1` (stereo not shown) [Example 41, 4-(3-chlorophenyl)-N-((4-cyanophenyl)(1-methyl-1H-imidazol-5-yl)methyl)-1-methyl-6-oxo-1,6-dihydro-3-pyridinecarboxamide] belongs 10%. Regarding `Cn1cncc1C(OCc1cc(=O)c(C#N)cn1-c1cccc(Cl)c1)c1ccc(C#N)cc1` (stereo not shown) [Example 42, 1-(3-chlorophenyl)-6-(((4-cyanophenyl)(1-methyl-1H-imidazol-5-yl)methoxy)methyl)-4-oxo-1,4-dihydro-3-pyridinecarbonitrile], at 0.1 µM the inhibition was 87%.

For `Cn1cncc1C(OCc1c[nH]c(=O)cc1-c1cccc(Cl)c1)c1ccc(C#N)cc1` (stereo not shown) [Example 44, 4-(((4-(3-chlorophenyl)-6-oxo-1,6-dihydro-3-pyridinyl)methoxy)(1-methyl-1H-imidazol-5-yl)methyl)benzonitrile], the inhibition at 0.1 µM was 89%. As for `Cn1cncc1C(OCc1cn(C)c(=O)cc1-c1cccc(Cl)c1)c1ccc(C#N)cc1` (stereo not shown) [Example 45, 4-(((4-(3-chlorophenyl)-1-methyl-6-oxo-1,6-dihydro-3-pyridinyl)methoxy)(1-methyl-1H-imidazol-5-yl)methyl)benzonitrile], the inhibition at 0.1 µM is 87%. In the case of `Cn1cncc1C(OCc1ccc(C#N)cc1NS(=O)(=O)c1cccs1)c1ccc(C#N)cc1` (stereo not shown) [Example 46, N-(5-cyano-2-(((4-cyanophenyl)(1-methyl-1H-imidazol-5-yl)methoxy)methyl)phenyl)-2-thiophenesulfonamide], testing at 0.1 µM gave an inhibition of 100%.

In turn, `Cc1ccc(S(=O)(=O)Nc2cc(C#N)ccc2COC(c2ccc(C#N)cc2)c2cncn2C)cc1` (stereo not shown) [Example 47, N-(5-cyano-2-(((4-cyanophenyl)(1-methyl-1H-imidazol-5-yl)methoxy)methyl)phenyl)-4-methylbenzenesulfonamide] displayed an inhibition at 0.1 µM of 100%.

In turn, `Cn1cncc1C(OCc1c(-c2cccc(Cl)c2)cc(C#N)c(=O)n1C)c1ccc(C#N)c(F)c1` (stereo not shown) [Example 52, 5-(3-chlorophenyl)-6-(((4-cyano-3-fluorophenyl)(1-methyl-1H-imidazol-5-yl)methoxy)methyl)-1-methyl-2-oxo-1,2-dihydro-3-pyridinecarbonitrile] came in with an inhibition at 0.1 µM of 100%. `Cn1cncc1C(OCc1c(-c2cccc(Cl)c2)cc(C#N)c(=O)n1C)c1ccc(C#N)cc1F` (stereo not shown) [Example 53, 5-(3-chlorophenyl)-6-(((4-cyano-2-fluorophenyl)(1-methyl-1H-imidazol-5-yl)methoxy)methyl)-1-methyl-2-oxo-1,2-dihydro-3-pyridinecarbonitrile] yielded an inhibition at 0.1 µM of 100%. In the case of `Cn1cncc1C(OCc1c(-c2cccc(Cl)c2)cc(C#N)c(=O)n1C)c1ccc(C#N)c(Cl)c1` (stereo not shown) [Example 54, 6-(((3-chloro-4-cyanophenyl)(1-methyl-1H-imidazol-5-yl)methoxy)methyl)-5-(3-chlorophenyl)-1-methyl-2-oxo-1,2-dihydro-3-pyridinecarbonitrile], testing at 0.1 µM gave an inhibition of 100%.

The assay is the same for the next values; noted with them: test compound at 10^−8 M; 3H-farnesyldiphosphate 0.6 μM, H-Ras 5.0 μM, 37° C., 30 minutes.
On to `Cn1cncc1C(O)(COc1ccc(C#N)cc1-c1ccc2c(c1)OCO2)c1ccc(C#N)cc1` (stereo not shown) [Example 55, 3-(1,3-benzodioxol-5-yl)-4-(2-(4-cyanophenyl)-2-hydroxy-2-(1-methyl-1H-imidazol-5-yl)ethoxy)benzonitrile], for which the inhibition at 0.01 µM came out at 98%. The same measure, in the same setting: the figure for `Cn1cncc1C(F)(COc1ccc(C#N)cc1-c1ccc2c(c1)OCO2)c1ccc(C#N)cc1` (stereo not shown) [Example 56, 3-(1,3-benzodioxol-5-yl)-4-(2-(4-cyanophenyl)-2-fluoro-2-(1-methyl-1H-imidazol-5-yl)ethoxy)benzonitrile] is 97%; for `COc1cccc(-c2cc(C#N)ccc2OCC(O)(c2ccc(C#N)cc2)c2cncn2C)c1` (stereo not shown) [Example 57, 6-(2-(4-cyanophenyl)-2-hydroxy-2-(1-methyl-1H-imidazol-5-yl)ethoxy)-3′-methoxy-1,1′-biphenyl-3-carbonitrile] it is 98%. With `Cn1cncc1C(O)(COc1ccc(C#N)cc1-c1cccc2cccnc12)c1ccc(C#N)cc1` (stereo not shown) [Example 59, 4-(2-(4-cyanophenyl)-2-hydroxy-2-(1-methyl-1H-imidazol-5-yl)ethoxy)-3-quinolin-8-ylbenzonitrile], the inhibition at 0.01 µM stood at 83%. On the same count and under the same terms, the figure for `Cn1cncc1C(F)(COc1ccc(C#N)cc1-c1cccc2cccnc12)c1ccc(C#N)cc1` (stereo not shown) [Example 60, 4-(2-(4-cyanophenyl)-2-fluoro-2-(1-methyl-1H-imidazol-5-yl)ethoxy)-3-quinolin-8-ylbenzonitrile] is 73%; for `Cn1cncc1C(O)(COc1ccc(C#N)cc1-c1ccc(F)c(F)c1)c1ccc(C#N)cc1` (stereo not shown) [Example 61, 6-(2-(4-cyanophenyl)-2-hydroxy-2-(1-methyl-1H-imidazol-5-yl)ethoxy)-3′,4′-difluoro-1,1′-biphenyl-3-carbonitrile] it is 96%; for `Cn1cncc1C(F)(COc1ccc(C#N)cc1-c1ccc(F)c(F)c1)c1ccc(C#N)cc1` (stereo not shown) [Example 62, 6-(2-(4-cyanophenyl)-2-fluoro-2-(1-methyl-1H-imidazol-5-yl)ethoxy)-3′,4′-difluoro-1,1′-biphenyl-3-carbonitrile] it is 93%. As usually defined, the % Inhibition is the drop in the measured response relative to a control, in per cent. For the molecule `Cn1cncc1C(O)(COc1ccc(C#N)cc1-c1ccc(OC(F)(F)F)cc1)c1ccc(C#N)cc1` (stereo not shown) [Example 63, 6-(2-(4-cyanophenyl)-2-hydroxy-2-(1-methyl-1H-imidazol-5-yl)ethoxy)-4′-(trifluoromethoxy)-1,1′-biphenyl-3-carbonitrile], the “% Inhibition at 10^−8 M” value is recorded as 97%. In the case of `Cn1cncc1C(F)(COc1ccc(C#N)cc1-c1ccc(OC(F)(F)F)cc1)c1ccc(C#N)cc1` (stereo not shown) [Example 64, 6-(2-(4-cyanophenyl)-2-fluoro-2-(1-methyl-1H-imidazol-5-yl)ethoxy)-4′-(trifluoromethoxy)-1,1′-biphenyl-3-carbonitrile], the inhibition at 0.01 µM is 90%. On to `Cn1cncc1C(F)(COc1ccc(C#N)cc1-c1ccc(F)c(Cl)c1)c1ccc(C#N)cc1` (stereo not shown) [Example 66, 3′-chloro-6-(2-(4-cyanophenyl)-2-fluoro-2-(1-methyl-1H-imidazol-5-yl)ethoxy)-4′-fluoro-1,1′-biphenyl-3-carbonitrile], for which the inhibition at 0.01 µM was found to be 93%.

The same assay, now with this note: test compound at 10^−9 M (stated in the cell); 3H-farnesyldiphosphate 0.6 μM, H-Ras 5.0 μM, 37° C., 30 minutes.
In the case of `Cn1cncc1C(O)(COc1ccc(C#N)cc1-c1ccc(F)c(Cl)c1)c1ccc(C#N)cc1` (stereo not shown) [Example 65, 3′-chloro-6-(2-(4-cyanophenyl)-2-hydroxy-2-(1-methyl-1H-imidazol-5-yl)ethoxy)4′-fluoro-1,1′-biphenyl-3-carbonitrile], the inhibition at 0.001 µM is 75%.
